From US10323041B2, “Bicyclic derivatives, a process for their preparation and pharmaceutical compositions containing them” (LES LABORATOIRES SERVIER, priority 2015, dated 2019)
Read-outs that look alike come from different tables or passages of the source.

Experiments:
[1] = biological target: Mcl-1 protein (Homo sapiens, UniProt Q07820); test: Inhibition of Mcl-1 by the fluorescence polarisation technique; assay type: binding
Summary of the method: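 Competitive FP with fluorescein-labelled peptide ligand, 5% DMSO, ~2 h at room temperature, 11-point curves, 4-parameter IC50. Method 1: 1 nM ligand, 5 nM Mcl-1 in HEPES pH 7.4 buffer; Method 2: 10 nM ligand, 10 nM Mcl-1 in phosphate pH 7.4 buffer, 50 μM unlabelled ligand as full-inhibition control.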

[2] = system: H929 multiple myeloma tumour line; test: In vitro cytotoxicity, Microculture Tetrazolium Assay on H929 cells; assay type: cell-based; settings: cell viability, read-out: IC50 (M) MTT H929
Experimental: The cytotoxicity studies were carried out on the H929 multiple myeloma tumour line.
The cells are distributed onto microplates and exposed to the test compounds for 48 hours. The cell viability is then quantified by a colorimetric assay, the Microculture Tetrazolium Assay (Cancer Res., 1987, 47, 939-942).

[3] = Method 1 (not underlined) or Method 2 (underlined), underlining not visible, first value where cell prints two, read-out: IC50 (M) Mcl-1 FP
[4] = Homo sapiens, NCI-H929, exposed for 48 hours

Chain of Mcl-1 protein (Q07820 whole entry): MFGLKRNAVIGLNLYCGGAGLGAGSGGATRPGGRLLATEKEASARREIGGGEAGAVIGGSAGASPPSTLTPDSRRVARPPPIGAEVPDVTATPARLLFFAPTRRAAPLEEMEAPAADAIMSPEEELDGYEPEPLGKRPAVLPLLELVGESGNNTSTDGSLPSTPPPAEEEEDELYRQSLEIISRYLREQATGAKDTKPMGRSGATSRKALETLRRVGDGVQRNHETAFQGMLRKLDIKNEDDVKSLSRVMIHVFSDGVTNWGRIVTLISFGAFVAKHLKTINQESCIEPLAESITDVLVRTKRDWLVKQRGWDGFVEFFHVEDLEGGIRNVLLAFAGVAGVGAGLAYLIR

For `COc1ccccc1-c1nccc(COc2ccccc2CC(Oc2cccc3oc(-c4ccc(F)cc4)c(-c4ccc(OCCN5CCN(C)CC5)c(Cl)c4C)c23)C(=O)O)n1` (single isomer, unassigned) [Example 64], the IC50 [1, 3] was 7.4e-09 M and the IC50 [2, 4] was 4.71e-08 M.
For `COc1ccccc1-c1nccc(COc2ccccc2C[C@@H](Nc2ccnc3nc(-c4ccc(F)cc4)c(-c4ccc(OCCN5CCN(C)CC5)c(Cl)c4C)n23)C(=O)O)n1` [Example 102, N-[3-{3-chloro-2-methyl-4-[2-(4-methylpiperazin-1-yl)ethoxy]phenyl}-2-(4-fluorophenyl)imidazo[1,2-a]pyrimidin-5-yl]-2-{[2-(2-methoxyphenyl)pyrimidin-4-yl]methoxy}-D-phenylalanine], the “IC50 (M) Mcl-1 FP” value ([1]; Method 1 (not underlined) or Method 2 (underlined), underlining not visible, first value where cell prints two) was “no curve” and the IC50 [2, 4] was > 3e-05 M.
In the case of `COc1ccccc1-c1nccc(COc2ccccc2C[C@@H](Nc2nccc3sc(-c4ccc(F)cc4)c(-c4ccc(OCCN5CCN(C)CC5)c(Cl)c4C)c23)C(=O)O)n1` [Example 86, N-[3-{3-chloro-2-methyl-4-[2-(4-methylpiperazin-1-yl)ethoxy]phenyl}-2-(4-fluorophenyl)thieno[3,2-c]pyridin-4-yl]-2-{[2-(2-methoxyphenyl)pyrimidin-4-yl]methoxy}phenylalanine], the IC50 [1, 3] is reported as 3.05e-08 M and the IC50 [2, 4] is reported as 3.59e-08 M.
Compound `COc1ccccc1-c1nccc(COc2ccccc2CC(Oc2nccc3nc(-c4ccc(F)cc4)c(-c4ccc(OCCN5CCN(C)CC5)c(Cl)c4C)n23)C(=O)O)n1` (stereo not shown) [Example 97b, 2-{[(3Ra)-3-{3-chloro-2-methyl-4-[2-(4-methylpiperazin-1-yl)ethoxy]phenyl}-2-(4-fluorophenyl)imidazo[1,2-c]pyrimidin-5-yl]oxy}-3-(2-{[2-(2-methoxyphenyl)pyrimidin-4-yl]methoxy}phenyl)propanoic acid] has an IC50 [1, 3] of 4.1e-08 M and an IC50 [2, 4] of 4.59e-07 M.
Compound `COc1ccccc1CC(Oc1cccc2cc(-c3ccco3)n(-c3ccc(OCCN4CCN(C)CC4)c(Cl)c3C)c12)C(=O)O` [Example 59, (2R)-2-{[(1Sa)-1-{3-chloro-2-methyl-4-[2-(4-methylpiperazin-1-yl)ethoxy]phenyl}-2-(furan-2-yl)-1H-indol-7-yl]oxy}-3-(2-methoxyphenyl)propanoic acid] has an IC50 [1, 3] of 3.6e-08 M and an IC50 [2, 4] of 1.24e-06 M.
For `COc1ccccc1-c1nccc(COc2ccccc2CC(Oc2ccnc3sc(-c4ccc(F)cc4)c(-c4ccc(OCCN5CCN(C)CC5)c(Cl)c4C)c23)C(=O)OC(C)OC(=O)N(C)C)n1` [Example 75, 1-[(dimethylcarbamoyl)oxy]ethyl (2R)-2-{[(3Sa)-3-{3-chloro-2-methyl-4-[2-(4-methylpiperazin-1-yl)ethoxy]phenyl}-2-(4-fluorophenyl)thieno[2,3-b]pyridin-4-yl]oxy}-3-(2-{[2-(2-methoxyphenyl)pyrimidin-4-yl]methoxy}phenyl)propanoate], the IC50 [1, 3] was 5.61e-07 M and the IC50 [2, 4] was 7.55e-08 M.
`Cc1c(-c2c(-c3ccc(Cl)o3)oc3ncnc(O[C@H](Cc4ccccc4OCc4cnccn4)C(=O)O)c23)ccc(OCCN2CCN(C)CC2)c1Cl` [Example 5, (2R)-2-{[6-(5-chlorofuran-2-yl)-5-{3-chloro-2-methyl-4-[2-(4-methylpiperazin-1-yl)ethoxy]phenyl}furo[2,3-d]pyrimidin-4-yl]oxy}-3-[2-(pyrazin-2-ylmethoxy)phenyl]propanoic acid] showed an IC50 [1, 3] of 1.5e-08 M and an IC50 [2, 4] of 6.19e-07 M.
`CCc1sc2cccc(OC(Cc3ccccc3)C(=O)O)c2c1-c1ccc(OCCN2CCN(C)CC2)c(Cl)c1C` [Example 51, (2R)-2-[((3Sa)-3-{3-chloro-2-methyl-4-[2-(4-methylpiperazin-1-yl)ethoxy]phenyl}-2-ethyl-1-benzothiophen-4-yl)oxy]-3-phenylpropanoic acid] gave an IC50 [1, 3] of 3.6e-07 M, an IC50 ([1]; value after '/', presumably the other FP method (Method 1 / Method 2), read-out: IC50 (M) Mcl-1 FP, second value of the cell) of 5.5e-09 M and an IC50 [2, 4] of 1.1e-05 M.
`COc1ccccc1-c1nccc(COc2ccccc2CC(Oc2cccc3c2c(-c2ccc(OCCN4CCN(C)CC4)c(Cl)c2C)c(-c2ccc(F)cc2)n3C)C(=O)O)n1` (single isomer, unassigned) [Example 69] gave an IC50 [1, 3] of 2.4e-08 M and an IC50 [2, 4] of 1.04e-07 M.
Work on `COc1ccccc1CC(Oc1cccc2cc(-c3ccc(F)o3)n(-c3ccc(OCCN4CCN(C)CC4)c(Cl)c3C)c12)C(=O)O` [Example 60, (2R)-2-{[(1Sa)-1-{3-chloro-2-methyl-4-[2-(4-methylpiperazin-1-yl)ethoxy]phenyl}-2-(5-fluorofuran-2-yl)-1H-indol-7-yl]oxy}-3-(2-methoxyphenyl)propanoic acid] yielded an IC50 [1, 3] of 1.9e-08 M and an IC50 [2, 4] of 5.68e-07 M.
For `COc1ccccc1-c1nccc(COc2ccccc2CC(Oc2nccc3nc(-c4ccc(F)cc4)c(-c4ccc(OCCN5CCN(C)CC5)c(Cl)c4C)n23)C(=O)O)n1` (stereo not shown) [Example 97a, 2-{[(3Sa)-3-{3-chloro-2-methyl-4-[2-(4-methylpiperazin-1-yl)ethoxy]phenyl}-2-(4-fluorophenyl)imidazo[1,2-c]pyrimidin-5-yl]oxy}-3-(2-{[2-(2-methoxyphenyl)pyrimidin-4-yl]methoxy}phenyl)propanoic acid], the “percentage fluorescence polarization inhibition” value ([1]; @ 10 μM test compound, partial inhibitors) was 55% @ 10 μM and the IC50 ([2]; exposed for 48 hours) was 1.16e-05 M.
`COc1ccccc1C[C@@H](Oc1ncnc2oc(-c3ccc(F)cc3)c(-c3ccc(OCCN4CCN(C)CC4)c(Cl)c3C)c12)C(=O)O` [Example 3, (2R)-2-{[5-{3-chloro-2-methyl-4-[2-(4-methylpiperazin-1-yl)ethoxy]phenyl}-6-(4-fluorophenyl)furo[2,3-d]pyrimidin-4-yl]oxy}-3-(2-methoxyphenyl) propanoic acid] gave an IC50 [1, 3] of 1.7e-08 M and an IC50 [2, 4] of 3.64e-07 M.
`CCOC(=O)OC(C)OC(=O)C(Cc1ccccc1OCc1ccnc(-c2ccccc2OC)n1)Oc1ccnc2sc(-c3ccc(F)cc3)c(-c3ccc(OCCN4CCN(C)CC4)c(Cl)c3C)c12` [Example 76, 1-[(ethoxycarbonyl)oxy]ethyl (2R)-2-{[(3Sa)-3-{3-chloro-2-methyl-4-[2-(4-methylpiperazin-1-yl)ethoxy]phenyl}-2-(4-fluorophenyl)thieno[2,3-b]pyridin-4-yl]oxy}-3-(2-{[2-(2-methoxyphenyl)pyrimidin-4-yl]methoxy}phenyl)propanoate] gave an IC50 [1, 3] of 1.34e-07 M and an IC50 [2, 4] of 1.01e-08 M.
With `COc1ccccc1-c1nccc(COc2ccccc2CC(Oc2ccnc3sc(-c4ccc(F)cc4)c(-c4ccc(OCCN5CCN(C)CC5)c(Cl)c4C)c23)C(=O)O)n1` [Example 71, (2R)-2-{[(3Sa)-3-{3-chloro-2-methyl-4-[2-(4-methylpiperazin-1-yl)ethoxy]phenyl}-2-(4-fluorophenyl)thieno[2,3-b]pyridin-4-yl]oxy}-3-(2-{[2-(2-methoxyphenyl)pyrimidin-4-yl]methoxy}phenyl)propanoic acid] the IC50 [1, 3] was 5.02e-09 M and the IC50 [2, 4] was 9.08e-09 M.
`CCc1c(-c2cccc(Cl)c2C)c2c(NC(Cc3ccccc3)C(=O)O)ncnc2n1Cc1ccccc1` (single isomer, unassigned) [Example 36, N-[7-benzyl-(5Ra)-5-(3-chloro-2-methylphenyl)-6-ethyl-7H-pyrrolo[2,3-d]pyrimidin-4-yl]-D-phenylalanine] showed an IC50 [1, 3] of 6.5e-06 M.
Compound `COc1ccccc1-c1nccc(COc2ccccc2CC(Oc2cccc3sc(-c4ccc(F)cc4)c(-c4ccc(OCCN5CCN(C)CC5)c(Cl)c4C)c23)C(=O)O)n1` (single isomer, unassigned) [Example 52] has an IC50 [1, 3] of 1.6e-06 M.
Work on `Cc1c(Cl)cccc1-c1c2n(c3ncnc(N[C@H](Cc4ccccc4)C(=O)O)c13)CCC2` [Example 46, N-[5-(3-chloro-2-methylphenyl)-7,8-dihydro-6H-pyrimido[5,4-b]pyrrolizin-4-yl]-D-phenylalanine] yielded an inhibition at 50 µM ([1]; @ 50 μM test compound, partial inhibitors, read-out: percentage fluorescence polarization inhibition) of 71%.
For `CCc1c(-c2cccc(Cl)c2C)c2c(N[C@H](Cc3ccccc3)C(=O)O)ncnc2n1C(C)C` [Example 38, N-[(5Ra)-5-(3-chloro-2-methylphenyl)-6-ethyl-7-(propan-2-yl)-7H-pyrrolo[2,3-d]pyrimidin-4-yl]-D-phenylalanine], the “percentage fluorescence polarization inhibition” value ([1]; @ 50 μM test compound, partial inhibitors, 50 µM) was 67% @ 50 μM.
`C=CCn1c(CC)c(-c2cccc(Cl)c2C)c2c(NC(Cc3ccccc3)C(=O)O)ncnc21` (single isomer, unassigned) [Example 24, N-[(5Ra)-5-(3-chloro-2-methylphenyl)-6-ethyl-7-(prop-2-en-1-yl)-7H-pyrrolo[2,3-d]pyrimidin-4-yl]-D-phenylalanine] showed an IC50 [1, 3] of 1.8e-05 M.
`COc1ccccc1CC(Oc1cccc2cc(-c3ccc(F)cc3)n(-c3ccc(OCCN4CCN(C)CC4)c(Cl)c3C)c12)C(=O)O` (stereo not shown) [Example 56] showed an IC50 [1, 3] of 4.7e-08 M.
Compound `Cc1c(-c2c(-c3ccc(F)cc3)oc3cc(F)cc(OC(Cc4ccccc4OCC(F)(F)F)C(=O)O)c23)ccc(OCCN2CCN(C)CC2)c1Cl` [Example 66, (2R)-2-{[(3Sa)-3-{3-chloro-2-methyl-4-[2-(4-methylpiperazin-1-yl)ethoxy]phenyl}-6-fluoro-2-(4-fluorophenyl)-1-benzofuran-4-yl]oxy}-3-[2-(2,2,2-trifluoroethoxy)phenyl]propanoic acid] has an IC50 [1, 3] of 1.6e-06 M.
`C=CCn1c(CC)c(-c2cccc(Cl)c2C)c2c(NC(Cc3ccccc3)C(=O)O)ncnc21` (single isomer, unassigned) [Example 25, N-[(5Sa)-5-(3-chloro-2-methylphenyl)-6-ethyl-7-(prop-2-en-1-yl)-7H-pyrrolo[2,3-d]pyrimidin-4-yl]-D-phenylalanine] showed an IC50 [1, 3] of 9.1e-06 M.
